Laboratory results: patent US20240130368A1, “HERBICIDAL COMPOSITION” (Nippon Soda Co., Ltd., priority 2021, published 2024)
Where two headings read alike, the source gives them in different places.

Assays:
Type in all cases: in vivo
[1] = tested on: Ipomoea hederacea; assay: Test Example 6: foliar spraying treatment, herbicidal effect from above ground weight; settings: Compound (I-3) alone
Protocol: (§1) POA allylphenyl ether (4.1 parts by weight), POE-POP glycol (1 part by weight), POE sorbitan laurate (0.8 parts by weight), glycerin (2.6 parts by weight), dimethylformamide (65.9 parts by weight), N-methylpyrrolidone (5.1 parts by weight), cyclohexanone (15.4 parts by weight), and aromatic hydrocarbons (5.1 parts by weight) were mixed and dissolved to prepare an emulsion. The active ingredient (4 mg) of the composition of the present invention was dissolved in this emulsion (100 μL) to prepare a test emulsion. It should be noted that POA means “polyoxyalkylene”, POE means “polyoxyethylene”, and POP means “polyoxypropylene”.
(§2) A test emulsion was prepared in the same manner as in Test Example 4.
(§3) A 300 cm^2 pot was filled with soil, and seeds of Zea mays and Ipomoea hederacea were sown into the surface layer, and then grown in a greenhouse after being covered lightly with soil. When each plant grew to a plant height of 7 to 9 cm, the above test emulsion was diluted so that the amount of the active ingredient became a predetermined amount, and sprayed on the foliage with a small sprayer at a spray water volume of 250 L per hectare.
(§4) Test Examples 6-1 and 6-3 were evaluated in the same manner as in Test Example 4.
(§5) The expected values of the herbicidal effects in Test Example 6-2 were calculated using the following Colby's formula (Colby, S. R., Calculating synergistic and antagonistic responses of herbicide combinations, Weeds, 15, pp. 20-22 (1967)).
(§6) X indicates an herbicidal effect (%) by applying the compound (1) alone, Y and Z each indicate an herbicidal effect (%) by applying one of the two types of the compounds (II) alone, and E indicates an expected value (%) of the herbicidal effect by applying combinations of the compound (I) and two types of the compounds (II).
(§7) When the actual measured value (%) of the herbicidal effect by the combined application of the compound (I) and two types of the compounds (11) is greater than the expected value E, it can be regarded that the combined application of the compound (1) and two types of the compounds (II) has a synergistic effect.
The following grass species were used as grass species to be controlled [scientific names]. • Morning glory [Ipomoea hederacea]

[2] = tested on: Amaranthus palmeri; assay: Test Example 4: foliar spraying treatment, herbicidal effect from above ground weight; settings: Compound (I-3) alone, 63 gai/ha, 3 weeks after spraying
Protocol: as §1
as §3, with “mays, Setaria faberi, Sorghum halepense, Brachiaria platyphylla, Amaranthus palmeri, Senna obtusifolia” for “mays”, “11” for “9”, “cm, it was used for” for “cm,”, “test. The” for “above”
(§8) For the evaluation of the herbicidal effects, the above ground weights of weeds in the untreated and treated areas were measured for each weed 3 weeks after spraying treatment, and the herbicidal effect (%) was calculated by the following calculation formula.
(§9) In addition, the expected values of the herbicidal effects were calculated from the herbicidal effects in a case where the compound (I) alone was applied and the herbicidal effects in a case where the compound (II) alone was applied by using the Colby's formula (Colby, S. R., Calculating synergistic and antagonistic responses of herbicide combinations, Weeds, 15, pp. 20-22 (1967)).
(§10) M indicates an herbicidal effect (%) in the application of the compound (1) alone, N indicates an herbicidal effect (%) in the application of the compound (II) alone, and E indicates an expected value (%) of the herbicidal effect in the combined application of the compound (I) and the compound (II). When the actual measured value (%) of the herbicidal effect in the combined application of the compound (I) and the compound (II) is greater than the expected value E, it can be regarded that the combined application of the compound (1) and the compound (II) has a synergistic effect.
(§11) Herbicidal effect (%)=[(above ground weight of weeds in untreated area)−(above ground weight of weeds in treated area)/(above ground weight of weeds in untreated area)]×100
(§12) The following grass species were used as grass species to be controlled [scientific names]. • Giant foxtail [Setaria faberi] • Johnson grass [Sorghum halepense] • Broadleaf signalgrass [Brachiaria platyphylla] • Palmer amaranth [Amaranthus palmeri] • Sicklepod [Senna obtusifolia] • Morning glory [Ipomoea hederacea]

[3] = tested on: Senna obtusifolia; assay: as above; settings: Compound (I-3) alone, 63 gai/ha, 3 weeks after spraying
Protocol: as §1
as §3, with “mays, Setaria faberi, Sorghum halepense, Brachiaria platyphylla, Amaranthus palmeri, Senna obtusifolia” for “mays”, “11” for “9”, “cm, it was used for” for “cm,”, “test. The” for “above”
as §8, §9, §10, §11, §12

[4] = tested on: Brachiaria platyphylla; assay: as above; settings: Compound (I-3) alone, 63 gai/ha, 3 weeks after spraying
Protocol: as §1
as §3, with “mays, Setaria faberi, Sorghum halepense, Brachiaria platyphylla, Amaranthus palmeri, Senna obtusifolia” for “mays”, “11” for “9”, “cm, it was used for” for “cm,”, “test. The” for “above”
as §8, §9, §10, §11, §12

[5] = tested on: Ipomoea hederacea; assay: as above; settings: Compound (I-3) alone, 63 gai/ha, 3 weeks after spraying
Protocol: as §1
as §3, with “mays, Setaria faberi, Sorghum halepense, Brachiaria platyphylla, Amaranthus palmeri, Senna obtusifolia” for “mays”, “11” for “9”, “cm, it was used for” for “cm,”, “test. The” for “above”
as §8, §9, §10, §11, §12

[6] = tested on: Setaria faberi; assay: as above; settings: Compound (I-3) alone, 63 gai/ha, 3 weeks after spraying
Protocol: as §1
as §3, with “mays, Setaria faberi, Sorghum halepense, Brachiaria platyphylla, Amaranthus palmeri, Senna obtusifolia” for “mays”, “11” for “9”, “cm, it was used for” for “cm,”, “test. The” for “above”
as §8, §9, §10, §11, §12

[7] = tested on: Sorghum halepense; assay: as above; settings: Compound (I-3) alone, 63 gai/ha, 3 weeks after spraying
Protocol: as §1
as §3, with “mays, Setaria faberi, Sorghum halepense, Brachiaria platyphylla, Amaranthus palmeri, Senna obtusifolia” for “mays”, “11” for “9”, “cm, it was used for” for “cm,”, “test. The” for “above”
as §8, §9, §10, §11, §12

[8] = tested on: Zea mays; assay: Test Example 6: foliar spraying treatment, herbicidal effect from above ground weight (useful plant); settings: Compound (I-3) alone
Protocol: as §1, §2, §3, §4, §5, §6, §7
The following plants were used as useful plants [scientific names]. • Corn for animal feed [Zea mays]

[9] = tested on: Ambrosia artemisiifolia; assay: Test Example 1: seeds on filter paper moistened with chemical solution, herbicidal effect visually evaluated; settings: Ambrosia artemisiifolia, 144 h, visually evaluated 6 days after treatment
Protocol: As the compound (1), 1-methoxy-3-methyl-6-(1,1-dioxido-8-(trifluoromethyl)thiochroman-5-yl)-7-oxa-3,4-diazabicyclo[4.1.0]hept-4-en-2-one (Compound (I-3)) was used.
The compound (I) or compound (II) was prepared into a 5% emulsion using DMF (containing 1.5% Tween) and diluted with water to a prescribed dosage concentration. Commercially available preparations were dissolved in water and adjusted to a prescribed dosage concentration.
Seeds were soaked in 0.6% sodium hypochlorite for a predetermined time for surface sterilization and washed with water for use (seed disinfection). Seeds of Ambrosia artemisiifolia were used for the test.
Filter paper was placed on a cup (diameter: 10 cm, height: 4 cm) with a lid and moistened with 8 ml of chemical solution, and seeds were sown thereon, and after covering with a lid, grown in a constant temperature room.
The herbicidal effects were visually evaluated, 6 days after the treatment, as the herbicidal effect (%), by comparing with a state of an untreated group using a total of 21 scores of withering index from 0 to 20 (0: mortality rate equivalent to that of the untreated group, 20: mortality rate of 100%).
as §9
M indicates an herbicidal effect (%) in the application of the compound (I) alone, N indicates an herbicidal effect (%) in the application of the compound (II) alone, and E indicates an expected value (%) of the herbicidal effect in the combined application of the compound (T) and the compound (TT). When the actual measured value (%) of the herbicidal effect in the combined application of the compound (I) and the compound (II) is greater than the expected value E, it can be regarded that the combined application of the compound (I) and the compound (II) has a synergistic effect.

[10] = tested on: Digitaria ciliaris; assay: Test Example 2: seeds on filter paper moistened with chemical solution, herbicidal effect visually evaluated; settings: Compound (I-3) alone, 0.2 ppm, 6 days after the treatment

**Q.** For `COC12OC1(c1ccc(C(F)(F)F)c3c1CCCS3(=O)=O)C=NN(C)C2=O` (stereo not shown) [Compound (I-3), 1-methoxy-3-methyl-6-(1,1-dioxido-8-(trifluoromethyl)thiochroman-5-yl)-7-oxa-3,4-diazabicyclo[4.1.0]hept-4-en-2-one], which “Actual measured value of herbicidal effect” value (“Actual measured value” for short) ([1]; 94 gai/ha) is on record?
**A.** Its value is 80%.

**Q.** And the “Actual measured value” value ([1]; 125 gai/ha)?
**A.** Its value is 60%.

**Q.** What about the “Actual measured value” value [2] of the same compound?
**A.** Its value is 100%.

**Q.** And the “Actual measured value” value [3]?
**A.** Its value is 60%.

**Q.** What about the “Actual measured value” value [4] of the same compound?
**A.** The value was 80%.

**Q.** What about the “Actual measured value” value [5] of the same compound?
**A.** The value was 70%.

**Q.** What about the “Actual measured value” value [6] of the same compound?
**A.** The value was 80%.

**Q.** And the “Actual measured value” value [7]?
**A.** Its value is 80%.

**Q.** What about the “Actual measured value” value ([8]; 94 gai/ha) of the same compound?
**A.** The value was 0%.

**Q.** What about the “Actual measured value” value ([8]; 125 gai/ha) of the same compound?
**A.** The value was 0%.

**Q.** And the pest or weed control at 3.1 ppm ([9]; read-out: Herbicidal effect (%), applied alone, amount of active ingredient 3.1 ppm)?
**A.** The pest or weed control at 3.1 ppm was 65%.

**Q.** And the pest or weed control at 3.1 ppm ([9]; read-out: Herbicidal effect (%), compound applied alone, amount of active ingredient 3.1 ppm)?
**A.** The pest or weed control at 3.1 ppm was 70%.

**Q.** And the Herbicidal effect [10]?
**A.** Its Herbicidal effect is 75%.
